Structures can show the parent of a compound that is named as a salt. Where two headings read alike, the source gives them in different places.

These results are taken from patent US20210147381A1, “1,2,3,4-SUBSTITUTED QUINOLINE COMPOUNDS AS SIP MODULATORS” (AbbVie Deutschland GmbH & Co. KG, priority 2017, published 2021).

Type in all cases: cell-based
Experiment [1] concerns the target T1, human S1P4 receptor (S1PR4) (Homo sapiens, UniProt O95977).
T1 construct: host or cells: CHO-K1
T1 sequence (O95977 1-384): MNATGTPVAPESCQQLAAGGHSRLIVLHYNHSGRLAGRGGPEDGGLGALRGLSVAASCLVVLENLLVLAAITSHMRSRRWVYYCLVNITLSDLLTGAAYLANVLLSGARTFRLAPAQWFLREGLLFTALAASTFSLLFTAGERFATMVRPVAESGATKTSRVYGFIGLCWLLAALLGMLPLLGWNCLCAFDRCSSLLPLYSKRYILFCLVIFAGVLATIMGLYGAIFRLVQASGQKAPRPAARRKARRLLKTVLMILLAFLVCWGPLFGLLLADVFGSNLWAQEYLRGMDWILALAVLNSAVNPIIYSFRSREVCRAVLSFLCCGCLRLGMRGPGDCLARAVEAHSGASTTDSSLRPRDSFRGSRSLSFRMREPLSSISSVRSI
The experiment in a line: Intracellular Ca2+ release (method 1), agonist potency, S1P4. Particulars: CHO-K1 cells expressing human S1PR4. The protocol: (§1) Agonistic activity and efficacy of compounds was assessed in recombinant cells using method 1 described below.
(§2) Agonist potency and efficacy were assessed by measurement of intracellular Ca^2+ release. Recombinant CHO-K1 cells (Euroscreen, Brussels, Belgium) expressing human S1PR5, S1PR1, S1PR3 or S1PR4 receptors, aequorin, and GTP binding protein Gq/i5 were cultured using a medium containing nutrient mixture F-12 Ham (Sigma-Aldrich) with 10% FBS, and 100 μg/mL gentamicin and equilibrated at 5% CO2.
(§3) 15,000 cells in 20 μL medium were seeded into Biocoat poly-D-Lysine coated 384 well plates (Becton Dickinson #35-6663) and grown to 95% confluency after 24 h.
(§4) Culture medium was replaced by an assay buffer consisting of HBBS with Ca^2+ and Mg^2+ (Invitrogen #14025-050), 20 mmol/L Hepes (Sigma-Aldrich #H-3375), 2.5 mmol/L probenecid (Sigma-Aldrich #P-8761, and 0.1% BSA (Sigma-Aldrich #A-7030) pH 7.4. The Calcium 5 no-wash FLIPR assay kit (Molecular Devices #5000625) was performed as described in the kit instructions. Cells were incubated with Calcium 5 dye for 1 h at 37° C., 5% CO2 in the dark. After 45 min adaptation to RT assessment of agonist stimulation of intracellular Ca^2+ release was performed by addition of test compounds at various concentrations obtained by serial dilution. Phospho-fingolimod was used as positive control and reference agonist (intrinsic activity 100%).
(§5) Agonism of test compounds at the human S1Px receptors were characterized by the EC50 values (potencies) deduced from a nonlinear 4 parametric logistic curve fit to the measured fluorescence data after normalization to the lower and upper plateaus of the fitted reference agonist's (phospho-fingolimod)effect curve and by their efficacy (Emax) values represented by their maximum achievable effects in % of the reference agonist's efficacy, which is defined as an Emax of 100%.

Experiment [2] concerns the target T2, human S1P1 receptor (S1PR1) (Homo sapiens, UniProt P21453).
T2 construct: host or cells: CHO-K1
The experiment in a line: Intracellular Ca2+ release (method 1), agonist potency, S1P1. As to conditions: CHO-K1 cells expressing human S1PR1. Here is the method: as §1, §2, §3, §4, §5

The target in experiment [3] is T3, human S1P5 receptor (S1PR5) (Homo sapiens, UniProt Q9H228).
T3 construct: host or cells: CHO-K1
The experiment in a line: Intracellular Ca2+ release (method 1), agonist potency and efficacy, S1P5. As to conditions: for Emax: read-out: hS1P5 EMax. The protocol:
as §1, §2, §3, §4, §5

The target in experiment [4] is T4, human S1P3 receptor (S1PR3) (Homo sapiens, UniProt Q99500).
T4 construct: host or cells: CHO-K1
Description: Intracellular Ca2+ release (method 1), agonist potency, S1P3. Here is the method:
as §1, §2, §3, §4, §5

[5] abbreviates: maximum effect in % of reference agonist phospho-fingolimod (100%).
The mark [6] stands for this setting: recombinant CHO-K1 cells expressing human S1PR5, aequorin, Gq/i5, Ca2+ release, read-out: S1P5 EC50 range.
Where [7] appears, read: CHO-K1 cells expressing human S1PR3.

T2 sequence (P21453 whole entry): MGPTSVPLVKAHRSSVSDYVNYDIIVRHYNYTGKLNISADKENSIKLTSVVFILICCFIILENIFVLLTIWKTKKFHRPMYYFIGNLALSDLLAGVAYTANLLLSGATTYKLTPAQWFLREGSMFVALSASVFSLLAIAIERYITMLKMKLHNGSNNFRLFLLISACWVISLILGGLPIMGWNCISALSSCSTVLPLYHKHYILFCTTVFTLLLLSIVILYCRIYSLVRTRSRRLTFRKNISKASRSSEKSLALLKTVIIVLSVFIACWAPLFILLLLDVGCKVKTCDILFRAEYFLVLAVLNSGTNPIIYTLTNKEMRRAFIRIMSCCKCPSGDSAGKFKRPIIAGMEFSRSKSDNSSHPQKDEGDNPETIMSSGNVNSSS
T4 sequence (Q99500 whole entry): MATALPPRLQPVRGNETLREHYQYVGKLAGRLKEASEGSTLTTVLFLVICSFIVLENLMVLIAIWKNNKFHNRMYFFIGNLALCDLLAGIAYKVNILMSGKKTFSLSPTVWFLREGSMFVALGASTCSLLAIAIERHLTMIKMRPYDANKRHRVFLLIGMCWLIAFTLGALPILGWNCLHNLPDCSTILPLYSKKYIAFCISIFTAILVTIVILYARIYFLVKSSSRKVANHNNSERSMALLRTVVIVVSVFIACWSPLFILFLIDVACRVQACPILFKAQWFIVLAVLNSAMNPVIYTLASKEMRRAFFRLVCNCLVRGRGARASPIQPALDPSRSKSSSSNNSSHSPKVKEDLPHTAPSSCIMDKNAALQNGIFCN
T3 sequence (Q9H228 whole entry): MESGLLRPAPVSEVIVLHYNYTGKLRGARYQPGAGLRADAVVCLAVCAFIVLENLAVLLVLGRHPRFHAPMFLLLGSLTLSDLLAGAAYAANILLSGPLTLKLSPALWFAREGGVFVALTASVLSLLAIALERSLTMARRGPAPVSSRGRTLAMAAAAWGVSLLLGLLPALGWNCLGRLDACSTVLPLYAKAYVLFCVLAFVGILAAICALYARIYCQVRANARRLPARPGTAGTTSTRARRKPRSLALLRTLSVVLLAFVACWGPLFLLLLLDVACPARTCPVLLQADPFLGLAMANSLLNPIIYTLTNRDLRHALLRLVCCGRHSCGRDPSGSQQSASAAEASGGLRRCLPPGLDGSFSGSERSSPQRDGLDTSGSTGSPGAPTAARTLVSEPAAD

The term EC50 denotes the concentration at which the effect is half-maximal. As a reminder, the Emax is the greatest response seen or fitted, relative to the assay's reference. Regarding `Cc1ccccc1COc1ccc2c(c1)C1(CC1)CN(CCCC(=O)O)C2` [Compound 22, 4-(6′-((2-Methylbenzyl)oxy)-1′H-spiro[cyclopropane-1,4′-isoquinolin]-2′(3′H)-yl)butanoic acid], the EC50 in experiment [1] was 100 to 1000 nM; in experiment [2] (cells given as bound), over 1000 nM; in experiment [3] (setting [6]) it was under 10 nM; in experiment [4] (setting [7]), over 1000 nM. The Emax in experiment [3] (setting [5]) lay in the range of 50 to 100%.

With `O=C(O)CCCN1Cc2ccc(OCc3cccc(F)c3F)cc2C2(CC2)C1` [Compound 21, 4-(6′-((2,3-Difluorobenzyl)oxy)-1′H-spiro[cyclopropane-1,4′-isoquinolin]-2′(3′H)-yl)butanoic acid], the EC50 in experiment [1] is 100 to 1000 nM; in experiment [2] (cells given as bound), over 1000 nM; in experiment [3] (setting [6]), 10 to 100 nM; in experiment [4] (setting [7]), over 1000 nM. The Emax in experiment [3] (setting [5]) is under 50%.

Take `CC(C)c1ccc(C#Cc2ccc3c(c2)C2(CC2)CN(CCCC(=O)O)C3)cc1` [Compound 1, 2′-(3-carboxypropyl)-6′-((4-isopropylphenyl)ethynyl)-2′,3′-dihydro-1′H-spiro[cyclopropane-1,4′-isoquinolin]-2′-ium 2,2,2-trifluoroacetate]: the EC50 in experiment [1] (cells given as bound) was over 1000 nM; in experiment [2] it was 100 to 1000 nM; in experiment [3] (setting [6]), under 10 nM; in experiment [4] (setting [7]) it was over 1000 nM. In addition, the Emax in experiment [3] (setting [5]) lay in the range of 50 to 100%.

Consider `O=C(O)CCN1Cc2ccc(C#Cc3cc(F)cc(F)c3)cc2C2(CC2)C1` [Compound 32, 3-(6′-((3,5-difluorophenyl)ethynyl)-1′H-spiro[cyclopropane-1,4′-isoquinolin]-2′(3′H)-yl)propanoic acid acetic acid salt (1:1)], for which the concentration for a half-maximal effect (EC50) in experiment [1] was 100 to 1000 nM; in experiment [2] (cells given as bound), over 1000 nM; in experiment [3] (setting [6]), under 10 nM; in experiment [4] (setting [7]), over 1000 nM. Besides, in experiment [3] (setting [5]), the Emax fell in the range of 50 to 100%.

For `O=C(O)CCCN1Cc2ccc(OCc3cccc(F)c3)cc2C2(CC2)C1` [Compound 23, 4-(6′-((3-Fluorobenzyl)oxy)-1′H-spiro[cyclopropane-1,4′-isoquinolin]-2′(3′H)-yl)butanoic acid], the EC50 is over 1000 nM in experiment [1] (cells given as bound), over 1000 nM in experiment [2] (cells given as bound), 10 to 100 nM in experiment [3] (setting [6]) and over 1000 nM in experiment [4] (setting [7]). Also, in experiment [3] (setting [5]), the Emax fell in the range of 50 to 100%.

Turning to `O=C(O)CCCN1Cc2ccc(OCc3ccccc3Cl)cc2C2(CC2)C1` [Compound 25, 4-(6′-((2-Chlorobenzyl)oxy)-1′H-spiro[cyclopropane-1,4′-isoquinolin]-2′(3′H)-yl)butanoic acid], the EC50 in experiment [1] was 100 to 1000 nM; in experiment [2] (cells given as bound), over 1000 nM; in experiment [3] (setting [6]), under 10 nM; in experiment [4] (setting [7]) it was over 1000 nM. Further, the Emax in experiment [3] (setting [5]) lay in the range of 50 to 100%.

On to `O=C(O)CCN1Cc2ccc(C#Cc3c(F)cccc3F)cc2C2(CC2)C1` [Compound 36, 3-(6′-((2,6-difluorophenyl)ethynyl)-1′H-spiro[cyclopropane-1,4′-isoquinolin]-2′(3′H)-yl)propanoic acid acetic acid salt (1:1)], for which the EC50 was 100 to 1000 nM in experiment [1], over 1000 nM in experiment [2] (cells given as bound), under 10 nM in experiment [3] (setting [6]) and over 1000 nM in experiment [4] (setting [7]). In addition, the Emax in experiment [3] (setting [5]) lay in the range of 50 to 100%.

For the compound `CCOc1ccc(C#Cc2ccc3c(c2)C2(CC2)CN(CCCC(=O)O)C3)cc1F` [Compound 45, 4-(6′-((4-ethoxy-3-fluorophenyl)ethynyl)-1′H-spiro[cyclopropane-1,4′-isoquinolin]-2′(3′H)-yl)butanoic acid], the EC50 in experiment [1] (cells given as bound) was over 1000 nM; in experiment [2] (cells given as bound), over 1000 nM; in experiment [3] (setting [6]), under 10 nM; in experiment [4] (setting [7]), over 1000 nM. Further, the Emax in experiment [3] (setting [5]) lay within 50 to 100%.

In the case of `Cc1cccnc1C#Cc1ccc2c(c1)C1(CC1)CN(CCC(=O)O)C2` [Compound 43, 3-(6′-((3-methylpyridin-2-yl)ethynyl)-1′H-spiro[cyclopropane-1,4′-isoquinolin]-2′(3′H)-yl)propanoic acid acetic acid salt (1:1)], the EC50 in experiment [1] (cells given as bound) was over 1000 nM; in experiment [2] (cells given as bound), over 1000 nM; in experiment [3] (setting [6]), 1000 to 10000 nM; in experiment [4] (setting [7]), over 1000 nM. Moreover, the Emax in experiment [3] (setting [5]) was 50 to 100%.

`CC(C)Oc1ccc(C#Cc2ccc3c(c2)C2(CC2)CN(CCCC(=O)O)C3)cn1` [Compound 2, 4-(6′-((6-isopropoxypyridin-3-yl)ethynyl)-1′H-spiro[cyclopropane-1,4′-isoquinolin]-2′(3′H)-yl)butanoic acid]: the EC50 in experiment [1] (cells given as bound) is over 1000 nM; in experiment [2] (cells given as bound), over 1000 nM; in experiment [3] (setting [6]) it was under 10 nM; in experiment [4] (setting [7]), over 1000 nM. For the same compound, in experiment [3] (setting [5]), the Emax lay in the range of 50 to 100%.

Take `CCCn1cc(C#Cc2ccc3c(c2)C2(CC2)CN(CCC(=O)O)C3)cn1` [Compound 42, 3-(6′-((1-propyl-1H-pyrazol-4-yl)ethynyl)-1′H-spiro[cyclopropane-1,4′-isoquinolin]-2′(3′H)-yl)propanoic acid acetic acid salt (1:1)]: the EC50 is over 1000 nM in experiment [1] (cells given as bound), over 1000 nM in experiment [2] (cells given as bound), 1000 to 10000 nM in experiment [3] (setting [6]) and over 1000 nM in experiment [4] (setting [7]). For the same compound, the Emax in experiment [3] (setting [5]) lay within 50 to 100%.

With `CC(CC(=O)O)CN1Cc2ccc(C#Cc3c(F)cccc3F)cc2C2(CC2)C1` (centres unmarked) [Compound 58, 4-(6′-((2,6-difluorophenyl)ethynyl)-1′H-spiro[cyclopropane-1,4′-isoquinolin]-2′(3′H)-yl)-3-methylbutanoic acid], the EC50 is 100 to 1000 nM in experiment [1], over 1000 nM in experiment [2] (cells given as bound), under 10 nM in experiment [3] (setting [6]) and over 1000 nM in experiment [4] (setting [7]). Moreover, the Emax in experiment [3] (setting [5]) lay in the range of 50 to 100%.

`O=C(O)CCN1Cc2ccc(C#Cc3cccc(Cl)n3)cc2C2(CC2)C1` [Compound 40, 3-(6′-((6-chloropyridin-2-yl)ethynyl)-1′H-spiro[cyclopropane-1,4′-isoquinolin]-2′(3′H)-yl)propanoic acid acetic acid salt (1:1)]: the EC50 is 100 to 1000 nM in experiment [1], over 1000 nM in experiment [2] (cells given as bound), 100 to 1000 nM in experiment [3] (setting [6]) and over 1000 nM in experiment [4] (setting [7]). Moreover, the Emax in experiment [3] (setting [5]) lay within 50 to 100%.

For `O=C(O)CCN1Cc2ccc(C#Cc3cccc(Cl)c3)cc2C2(CC2)C1` [Compound 33, 3-(6′-((3-chlorophenyl)ethynyl)-1′H-spiro[cyclopropane-1,4′-isoquinolin]-2′(3′H)-yl)propanoic acid acetic acid salt (1:1)], the EC50 in experiment [1] was under 10 nM; in experiment [2] (cells given as bound) it was over 1000 nM; in experiment [3] (setting [6]), under 10 nM; in experiment [4] (setting [7]), over 1000 nM. Moreover, the Emax in experiment [3] (setting [5]) is under 50%.

As to `O=C(O)CCCN1Cc2ccc(C#Cc3ccc(OC(F)(F)F)c(F)c3)cc2C2(CC2)C1` [Compound 47, 4-(6′-((3-fluoro-4-(trifluoromethoxy)phenyl)ethynyl)-1′H-spiro[cyclopropane-1,4′-isoquinolin]-2′(3′H)-yl)butanoic acid], the EC50 in experiment [1] (cells given as bound) is over 1000 nM; in experiment [2] (cells given as bound), over 1000 nM; in experiment [3] (setting [6]) it was under 10 nM; in experiment [4] (setting [7]), over 1000 nM. In addition, the Emax in experiment [3] (setting [5]) was over 100%.

On to `O=C(O)CCCN1Cc2ccc(OCc3c(Cl)cccc3Cl)cc2C2(CC2)C1` [Compound 15, 4-(6′-((2,6-Dichlorobenzyl)oxy)-1′H-spiro[cyclopropane-1,4′-isoquinolin]-2′(3′H)-yl)butanoic acid], for which the EC50 in experiment [1] was 10 to 100 nM; in experiment [2] (cells given as bound) it was over 1000 nM; in experiment [3] (setting [6]), under 10 nM; in experiment [4] (setting [7]) it was over 1000 nM. Also, the Emax in experiment [3] (setting [5]) was over 100%.

In the case of `O=C(O)CCN1CCc2cc(C#Cc3c(Cl)cccc3Cl)ccc2C1` [Reference compound 2, 3-(6-((2,6-dichlorophenyl)ethynyl)-3,4-dihydroisoquinolin-2 (1H)-yl)propanoic acid, reference compound], the EC50 is 19.2 nM in experiment [3] (text value for reference compounds lacking the spiro-linked group, read-out: S1P5 EC50) and over 1000 nM in experiment [4] (value for reference compounds). The Emax in experiment [3] (value for reference compounds, % of phospho-fingolimod efficacy) was 41%.
